Source: patent publication US11345713B2, “Compounds as modulators of TLR2 signaling” (Neuropore Therapies, inc., priority 2018, dated 2022)
Counter-ions that a name gives are not always drawn.

How the values were obtained:
[1] = biological target: T1, human TLR2 (Pam2CSK4, TLR2/6 agonist) in HEK-Blue hTLR2 cells (Homo sapiens, UniProt O60603); assay: HEK-Blue hTLR2 antagonism assay (SEAP reporter) with Pam2CSK4 as agonist; assay type: cell-based; settings: 2 h compound pre-incubation, approx. 3×EC50 Pam2CSK4, 18 h, SEAP OD 655 nm, background subtracted
T1 construct: host or cells: HEK-Blue hTLR2 (HEK-293)
T1 sequence (O60603 19-784 limits assumed): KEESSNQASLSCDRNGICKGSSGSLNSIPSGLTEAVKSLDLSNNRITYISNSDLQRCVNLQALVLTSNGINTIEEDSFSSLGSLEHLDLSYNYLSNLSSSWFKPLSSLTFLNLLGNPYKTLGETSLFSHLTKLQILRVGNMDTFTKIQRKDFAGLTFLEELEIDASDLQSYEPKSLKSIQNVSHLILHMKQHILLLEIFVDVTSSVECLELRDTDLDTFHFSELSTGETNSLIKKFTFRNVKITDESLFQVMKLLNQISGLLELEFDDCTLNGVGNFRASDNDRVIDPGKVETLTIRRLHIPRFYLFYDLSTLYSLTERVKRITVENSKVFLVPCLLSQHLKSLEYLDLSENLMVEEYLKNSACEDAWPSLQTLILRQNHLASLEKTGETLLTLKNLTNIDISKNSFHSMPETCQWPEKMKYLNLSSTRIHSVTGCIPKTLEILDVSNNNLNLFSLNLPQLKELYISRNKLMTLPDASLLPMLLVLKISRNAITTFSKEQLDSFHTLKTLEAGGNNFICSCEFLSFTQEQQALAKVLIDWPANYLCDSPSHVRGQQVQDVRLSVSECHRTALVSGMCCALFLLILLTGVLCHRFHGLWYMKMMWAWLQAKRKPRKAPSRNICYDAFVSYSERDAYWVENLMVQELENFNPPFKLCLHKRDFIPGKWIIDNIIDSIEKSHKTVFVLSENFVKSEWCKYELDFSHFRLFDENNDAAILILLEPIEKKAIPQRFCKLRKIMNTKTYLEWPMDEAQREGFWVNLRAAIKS
Protocol: (§1) Synthetic diacylated lipoprotein (Pam2CSK4, TLR2/6 agonist) and synthetic triacylated lipoprotein (Pam3CSK4, TLR1/2 agonist) were obtained from InvivoGen and were dissolved in endotoxin-free water to a concentration 1 mg/mL, vortexed until complete solubilization, and stored in aliquots at −20° C. Prior to addition to cells, an aliquot of the dissolved ligand was vortexed shortly and then was diluted in medium to 25 ng/mL Pam2CSK4 or 1000 ng/mL Pam3CSK4. The EC50 of the agonists for each assay run was determined by using 3-fold dilutions of each agonist from the following starting concentrations: 5 ng/mL for Pam2CSK4, and 200 ng/mL for Pam3CSK4.
(§2) Test compounds were solubilized fresh to 10-20 mM stocks in DMSO and sonicated for 5-10 minutes in a water bath sonicator. Serial dilutions were prepared in DMSO, and then diluted in medium. The final concentration of DMSO used in the assay was 1%.
(§3) HEK-Blue hTLR2 reporter cells (InvivoGen) are HEK-293 cells stably expressing both the human TLR2 gene and a secreted embryonic alkaline phosphatase (SEAP) reporter construct downstream of NFκB promotor sites. HEK-Blue hTLR2 reporters were cultured according to manufacturer's protocol using Dulbecco's Modified Eagle Medium (DMEM; Gibco) containing 1× GlutaMax (Gibco), 10% heat-inactivated Fetal Bovine Serum (Gibco), Pen-Strep (50 U/mL penicillin, 50 μg/mL streptomycin, Gibco), 100 μg/mL Normocin (InvivoGen), and the selective antibiotic, 1× HEK-Blue Selection (InvivoGen). Quanti-Blue reagent (InvivoGen) for detection and quantification of secreted alkaline phosphatase was dissolved in 100 mL of endotoxin-free water, warmed to 37° C. for 30 minutes and then filtered using a 0.2 μm membrane.
(§4) On day 1, 50 μL of each test compound dilution in duplicates or a vehicle control was added to each well of a 96-well plate followed by addition of 150 μL of HEK-Blue hTLR2 cell suspension (1×10^5 cells/well) and incubated at 37° C./5% CO2 for 2 h. Next, 50 μL of an approximate 3×EC50 concentration of each agonist (Pam2CSK4 or Pam3CSK4) was added to the wells containing test compounds or the vehicle control. The plates were then incubated at 37° C./5% CO2 for 18 h. For each assay run, non-treated HEK-Blue hTLR2 cells were treated with serial dilutions of agonists to determine EC50 values for the respective run.
(§5) On day 2, secreted alkaline phosphatase (SEAP) activity was detected in cell culture supernatants. In brief, 20 μL was collected from each well and transferred to a 96-well plate. Next, 200 μL of Quanti-Blue detection reagent was added to each well. Plates were incubated at room temperature for 15 min and SEAP activity was assessed by spectrophotometer OD reading at 655 nm. […] The activities of the compounds against Pam2CSK4 and Pam3CSK4 are presented as IC50 values for the response from cells treated with agonists with the background signal subtracted.

[2] = biological target: T2, human TLR2 (Pam3CSK4, TLR1/2 agonist) in HEK-Blue hTLR2 cells (Homo sapiens, UniProt O60603); assay: HEK-Blue hTLR2 antagonism assay (SEAP reporter) with Pam3CSK4 as agonist; assay type: cell-based; settings: 2 h compound pre-incubation, approx. 3×EC50 Pam3CSK4, 18 h, SEAP OD 655 nm, background subtracted
T2 construct: host or cells: HEK-Blue hTLR2 (HEK-293)
T2 sequence (O60603 19-784 limits assumed): as above
Protocol: as §1, §2, §3, §4, §5

Structure (SMILES)	IC50 [1]	IC50 [2]
N=C(N)N/N=C/c1cc(/C=C/c2ccc(N3CCCC3)cc2)cc(F)c1O [compound 83, 2-((E)-3-fluoro-2-hydroxy-5-((E)-4-(pyrrolidin-1-yl)styryl)benzylidene)hydrazine-1-carboximidamide]	36.7 µM	88.9 µM
O=S(=O)(N/N=C/c1cc(/C=C/c2ccc(N3CCCC3)cc2)cc(F)c1O)c1ccccc1 [compound 81, N′-((E)-3-fluoro-2-hydroxy-5-((E)-4-(pyrrolidin-1-yl)styryl)benzylidene)benzenesulfonohydrazide]	16.4 µM	13.2 µM
COc1cc(/C=C/c2cccc(N3CCCC3)c2)cc(C=O)c1O [compound 46, (E)-2-hydroxy-3-methoxy-5-(3-(pyrrolidin-1-yl)styryl)benzaldehyde]	1.4 µM	1 µM
Oc1c(F)cc(/C=C/c2ccc(N3CCCC3)cc2)cc1/C=N/c1ccccc1 [compound 78, 2-fluoro-6-((E)-(phenylimino)methyl)-4-((E)-4-(pyrrolidin-1-yl)styryl)phenol]	1 µM	0.9 µM
COc1cc(-c2cc3c(s2)CCN(C(=O)C2CC2)C3)cc(/C=C/C(=O)c2ccccc2)c1O [compound 73, (E)-3-(5-(5-(cyclopropanecarbonyl)-4,5,6,7-tetrahydrothieno[3,2-c]pyridin-2-yl)-2-hydroxy-3-methoxyphenyl)-1-phenylprop-2-en-1-one]	4.5 µM	4.8 µM
COc1cc(C=Cc2ccc3c(c2)OCCO3)cc(C=O)c1O [compound 38, 5-(2-(2,3-dihydrobenzo[b][1,4]dioxin-6-yl)vinyl)-2-hydroxy-3-methoxybenzaldehyde]	4.4 µM	5 µM
OCc1cc(/C=C/c2ccc(N3CCCC3)cc2)cc(F)c1O [compound 90, (E)-2-fluoro-6-(hydroxymethyl)-4-(4-(pyrrolidin-1-yl)styryl)phenol]	5.4 µM	8.5 µM
O=Cc1c(O)cc(/C=C/c2ccc(N3CCCCC3)cc2)cc1F [compound 71, (E)-2-fluoro-6-hydroxy-4-(4-(piperidin-1-yl)styryl)benzaldehyde]	13.7 µM	2.5 µM
COc1cc(/C=C/C(=O)N2CCOCC2)cc(C=O)c1O [compound 35, (E)-2-hydroxy-3-methoxy-5-(3-morpholino-3-oxoprop-1-en-1-yl)benzaldehyde]	68.5 µM	62.6 µM
COc1cc(/C=C/c2ccc(N3CCOCC3)cc2)cc(C=O)c1O [compound 40, (E)-2-hydroxy-3-methoxy-5-(4-morpholinostyryl)benzaldehyde]	2.3 µM	2.5 µM
COc1cc(-c2cc3c(s2)CCN(CCF)C3)cc(C=O)c1O [compound 16, 5-(5-(2-fluoroethyl)-4,5,6,7-tetrahydrothieno[3,2-c]pyridin-2-yl)-2-hydroxy-3-methoxybenzaldehyde]	5.9 µM	6.9 µM
Oc1c(F)cc(/C=C/c2ccc(N3CCCC3)cc2)cc1/C=N/N1CCN(C2CC2)CC1 [compound 92, 2-((E)-((4-cyclopropylpiperazin-1-yl)imino)methyl)-6-fluoro-4-((E)-4-(pyrrolidin-1-yl)styryl)phenol]	26.6 µM	32.3 µM
COc1cc(/C=C/c2ccc(C(F)(F)F)cc2)cc(C=O)c1O [compound 8, (E)-2-hydroxy-3-methoxy-5-(4-(trifluoromethyl)styryl)benzaldehyde]	6.3 µM	5.5 µM
COc1cc(-c2cc3c(s2)CCNC3)cc(C=O)c1O [compound 13, 2-hydroxy-3-methoxy-5-(4,5,6,7-tetrahydrothieno[3,2-c]pyridin-2-yl)benzaldehyde hydrochloride]	4.5 µM	3.8 µM
O=C(N/N=C/c1cc(/C=C/c2ccc(N3CCCC3)cc2)cc(F)c1O)c1ccccc1 [compound 80, N′-((E)-3-fluoro-2-hydroxy-5-((E)-4-(pyrrolidin-1-yl)styryl)benzylidene)benzohydrazide]	28.4 µM	14.8 µM
COc1cc(/C=C/C(=O)c2ccccc2)cc(C(=O)/C=C/c2ccccc2)c1O [compound 84, (E)-3-(3-cinnamoyl-4-hydroxy-5-methoxyphenyl)-1-phenylprop-2-en-1-one]	3.4 µM	3.1 µM

Results, then the compound that gave them:

IC50 [1]	IC50 [2]	Structure (SMILES)
11.8 µM	11.5 µM	COc1cc(/C=C/c2ccccn2)cc(C=O)c1O [compound 23, (E)-2-hydroxy-3-methoxy-5-(2-(pyridin-2-yl)vinyl)benzaldehyde]
1.6 µM	1.3 µM	O=Cc1cc(/C=C/c2ccc3c(c2)CCCO3)cc(F)c1O [compound 68, (E)-5-(2-(chroman-6-yl)vinyl)-3-fluoro-2-hydroxybenzaldehyde]
10 µM	6.7 µM	O=Cc1cc(/C=C\c2ccc(N3CCCC3)cc2)cc(F)c1O [compound 50, (Z)-3-fluoro-2-hydroxy-5-(4-(pyrrolidin-1-yl)styryl)benzaldehyde]
2.5 µM	2.3 µM	COc1cc(/C=C/c2ccc(F)cc2F)cc(C=O)c1O [compound 6, (E)-5-(2,4-difluorostyryl)-2-hydroxy-3-methoxybenzaldehyde]
17.8 µM	6.3 µM	COc1ccc(/C=C/c2cc(C=O)c(O)cc2F)cc1 [compound 22, (E)-4-fluoro-2-hydroxy-5-(4-methoxystyryl)benzaldehyde]
7.9 µM	6.2 µM	COc1cc(/C=C/c2ccc(F)cc2)cc(C=O)c1O [compound 7, (E)-5-(4-fluorostyryl)-2-hydroxy-3-methoxybenzaldehyde]
12.8 µM	15.4 µM	O=Cc1cc(/C=C/c2ccc3c(c2)OCCO3)cc(F)c1O [compound 39, (E)-5-(2-(2,3-dihydrobenzo[b][1,4]dioxin-6-yl)vinyl)-3-fluoro-2-hydroxybenzaldehyde]
9.1 µM	10 µM	Cc1ccc(/C=C/c2cc(F)c(O)c(C=O)c2)cn1 [compound 29, (E)-3-fluoro-2-hydroxy-5-(2-(6-methylpyridin-3-yl)vinyl)benzaldehyde]
5.5 µM	4 µM	COc1cc(/C=C/c2ccccc2)cc(C=O)c1O [compound 4, (E)-2-hydroxy-3-methoxy-5-styrylbenzaldehyde]
0.6 µM	0.4 µM	COc1cc(/C=C/c2ccc(-c3ccccc3)cc2)cc(C=O)c1O [compound 36, (E)-5-(2-([1,1′-biphenyl]-4-yl)vinyl)-2-hydroxy-3-methoxybenzaldehyde]
1.8 µM	1.7 µM	COc1cc(/C=C/c2ccc(-n3cccn3)cc2)cc(C=O)c1O [compound 56, (E)-5-(4-(1H-pyrazol-1-yl)styryl)-2-hydroxy-3-methoxybenzaldehyde]
32.8 µM	40.7 µM	O=Cc1cc(/C=C\c2ccc(N3CCOCC3)cc2)cc(F)c1O [compound 43, (Z)-3-fluoro-2-hydroxy-5-(4-morpholinostyryl)benzaldehyde]
4.1 µM	2.6 µM	O=Cc1cc(/C=C/c2ccc3ncccc3c2)cc(F)c1O [compound 59, (E)-3-fluoro-2-hydroxy-5-(2-(quinolin-6-yl)vinyl)benzaldehyde]
1.3 µM	0.9 µM	O=Cc1cc(/C=C/c2cccc(N3CCCC3)c2)cc(F)c1O [compound 47, (E)-3-fluoro-2-hydroxy-5-(3-(pyrrolidin-1-yl)styryl)benzaldehyde]
9.7 µM	7.5 µM	COc1cc(/C=C/c2cc(C=O)c(O)c(OC)c2)ccc1O [compound 34, (E)-2-hydroxy-5-(4-hydroxy-3-methoxystyryl)-3-methoxybenzaldehyde]
4.8 µM	3.1 µM	COc1cc(C=Cc2ccc(Cl)cc2)cc(C=O)c1O [compound 3, 5-(4-chlorostyryl)-2-hydroxy-3-methoxybenzaldehyde]
